pIC50: −log10 of the molar value.
Experiments:
[1] = system: S. mansoni newly transformed schistosomula (NTS); assay: In vitro testing on Schistosoma mansoni newly transformed schistosomula (NTS), viability score; assay type: cell-based; details: for IC50: NTS, 72 hours post-incubation
Method in brief: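 Mechanically transformed S. mansoni (Liberian strain) NTS, cultured overnight, exposed at 100 per well to compound (from 10 mM DMSO stock; ≤1% DMSO controls) at 37 °C, 5% CO2 for 72 h. Viability scored microscopically from 3 (normal activity, intact tegument) to 0 (dead, granulated).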

[2] = system: Plasmodium falciparum W2 clone (Indochina, chloroquine-resistant); assay: In vitro antimalarial assay, chloroquine-resistant W2 clone; assay type: cell-based; details: W2 clone; for pIC50: converted with molecular weight, read-out: P. falciparum W2 IC50; for X more potent than chloroquine: molar IC50 ratio versus chloroquine
Method in brief: (§1)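 Parasites grown in type A human RBCs; assay run on infected cell suspension at 2% parasitemia and 2% hematocrit, in duplicate at several concentrations. IC50 taken from dose curves, per the Makler method, with DMSO as vehicle; Vero cytotoxicity run in parallel to derive a selectivity index.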

[3] = system: methicillin-resistant S. aureus ATCC 33591 (MRS); assay: Antibacterial broth dilution assay against MRSA (modified CLSI); assay type: cell-based, Staphylococcus aureus; details: for MRSa IC50 / pIC50: in vitro; for pIC50: converted with molecular weight; for X more potent than ciprofloxacen: molar IC50 ratio versus ciprofloxacen
Method in brief: (§2)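 Growth read by optical density at 530 nm, duplicate wells, 1% final DMSO. Staphylococcus spp.: Mueller-Hinton pH 7.3, 5.0×10^5 CFU/ml, 35 °C for 16-20 h; Candida spp.: RPMI/dextrose/glutamine/MOPS pH 6.0, 1.5×10^3 CFU/ml, 35 °C for 46-50 h. Reported values are 50% inhibition versus controls, no-growth MIC, and killing MFC/MBC.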

[4] = system: L. donovani promastigotes; assay: Antileishmanial Alamar Blue assay on promastigotes; assay type: cell-based, Leishmania donovani; details: for X more potent than Pentamidine: L. donovani, ratio of molar IC50 to Pentamidine; for L. donovani IC50 / pIC50: promastigotes, 48 hours, Alamar Blue; for pIC50: read-out: L. donavani IC50
Method in brief: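 Alamar Blue fluorescence (544/590 nm) quantified growth after 48 hours at 26° C of compound-treated promastigotes. Parasites were seeded at 5×10^5/mL in RPMI 1640 plus 10% FCS; drug range 50-3.1 μg/mL, and IC50 derived by plotting percent growth against test concentration.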

[5] = system: Plasmodium falciparum D6 clone (Sierra Leon, chloroquine-sensitive); assay: In vitro antimalarial assay, chloroquine-sensitive D6 clone; assay type: cell-based; details: D6 clone; for pIC50: converted with molecular weight, read-out: P. falciparum D6 IC50; for X more potent than chloroquine: molar IC50 ratio versus chloroquine
Method in brief: as §1

[6] = system: Staphylococcus aureus ATCC 29213; assay: Antibacterial broth dilution assay against S. aureus (modified CLSI); assay type: cell-based; details: for S. aureus IC50 / pIC50: in vitro; for pIC50: converted with molecular weight; for X more potent than ciprofloxacen: molar IC50 ratio versus ciprofloxacen
Method in brief: as §2

S. mansoni adult worms = assay: In vitro tests on Schistosoma mansoni adult worms, viability score; assay type: cell-based
Procedure: All assays were prepared in compliance with the laboratory SOP described herein above. Female NMRI mice (age 3 weeks, weight ca. 14 g) were purchased from Charles River (Sulzfeld) or Harlan Laboratories (Blackthorn, United Kingdom). The animals were allowed to adapt for 1 week under controlled conditions (22° C., 50% humidity, 12 hours light, and free access to water and rodent diet) before experimental handling. To obtain adult schistosomes, NMRI mice were infected subcutaneously with 80 to 100 cercariae. After 7 to 8 weeks, the mice were euthanized with CO2, and the worms were collected from the hepatic portal and mesenteric veins. Two pairs of adult worms were placed in each well of a 24-well plate with 2 ml culture medium and the test compound. […] Worms were kept in an incubator at 37° C. and 5% CO2 for up to 72 hours. After 72 hours, worm condition was microscopically evaluated using a scale from 3 (normal activity and no tegument alteration) to 0 (dead, completely granulated). Active compounds progressed into IC50 determination. […] For the in vitro drug sensitivity assays, all viability scores were averaged across replicates and normalized to the average viability scores of the control wells (Microsoft Office Excel 2010). […]

C. glabrata ATCC 90030 = assay: Antifungal broth dilution assay against C. glabrata (modified CLSI); assay type: cell-based, Candida glabrata
Method in brief: as §2

SMILES	Effect at 72 h (%) ([1]; NTS S. mansoni, 33 μM)	P. falciparum W2 IC50 [2]	pIC50 [2]	X more potent than chloroquine [2]	MRSa IC50 [3]	pIC50 [3]	X more potent than ciprofloxacen [3]	X more potent than Pentamidine [4]	L. donovani IC50 [4]	pIC50 [4]	P. falciparum D6 IC50 [5]	pIC50 [5]	X more potent than chloroquine [5]	S. aureus IC50 [6]	pIC50 [6]	X more potent than ciprofloxacen [6]	also measured
[Cl-].[Cl-].[Mn+2].c1ccc(CN2CCN3CCN(CC2)CCN(Cc2ccccc2)CC3)cc1 [NS29, Mn(Bn2Bcyclen)Cl2]	43.24%	0.2747 µg/mL	6.26	1.25	5.750 µg/mL	4.94	0.02	0.35	7.70 µg/mL	4.82	0.1337 µg/mL	6.58	0.14	5.880 µg/mL	4.93	0.02	
CN1CCCN2CCN(CCCN(Cc3ccccc3)CC2)CC1.[Cl-].[Cl-].[Fe+2] [NS12]	100.00%	0.1164 µg/mL	6.59	2.67							0.1371 µg/mL	6.52	0.12				Effect at 72 h (%) ([1]; NTS S. mansoni at 10 μM): 100.00%; IC50 [1]: 6.69 µM; Effect at 72 h (%) (S. mansoni adult worms; adult S. mansoni at 10 μM, 72 h): 2.08%
[Cl-].[Cl-].[Mn+2].c1ccc(CN2CCCN3CCN(CCCN(Cc4ccccc4)CC3)CC2)cc1 [NS06, Mn(Bn2Bcyclam)Cl2]	81.08%	0.0674 µg/mL	6.90	5.36	1.510 µg/mL	5.55	0.07	0.13	21.99 µg/mL	4.38	0.0838 µg/mL	6.80	0.23	2.310 µg/mL	5.36	0.06	
CN1CCCN2CCN(CCCN(Cc3ccc(CN4CCCN5CCN(C)CCCN(CC5)CC4)cc3)CC2)CC1.[Cl-].[Cl-].[Cl-].[Cl-].[Mn+2].[Mn+2] [JGL16A]	5.41%	0.8002 µg/mL	6.02	0.71	7.770 µg/mL	5.03	0.02				0.7989 µg/mL	6.02	0.04	8.090 µg/mL	5.01	0.03	C. glabrata IC50 (C. glabrata ATCC 90030; in vitro): 18.600 µg/mL; pIC50 (C. glabrata ATCC 90030; in vitro, converted with molecular weight): 4.65; X more potent than Amphotericin B (C. glabrata ATCC 90030; molar IC50 ratio versus amphotericin B): 0.06
O=C(C1CCCCC1)N1CC(=O)N2CCc3ccccc3C2C1 (stereo not drawn) [Praziquantel, reference compound]																	IC50 ([1]; Schistosoma mansoni): 2.2 µM; IC50 (S. mansoni adult worms; Schistosoma mansoni, adult worms, 72 hours post-exposure, read-out: IC50 [μM] Adults): 0.1 µM

— patent US12139481B2, “Compositions comprising macrocycle derivatives incorporating bridged macrocycles and methods of producing and using same” (Southwestern Oklahoma State University, priority 2015, dated 2024)
